Test [1] concerns hematopoietic progenitor cells. Put plainly: Hematopoietic progenitor clonogenic assays (CFU-GEMM, BFU-e, CFU-GM). In kind it is cell-based, human. An outline of the steps:
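Normal bone marrow and cord blood progenitors (2×10^5 cells/ml) grown in methylcellulose with hCG preparations at 200 IU/ml or α/β-subunits and peptides at 100 μg/ml. Colonies (aggregates >50 cells) counted after 10 days of culture.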

Test [2] deals with breast cancer cells. As to the kind of experiment: Clonogenic assay, breast cancer cells. As to conditions: 100 ug/ml. It is filed as cell-based. On the procedure: (§1) The hCG preparations, fractions of the early pregnancy urine and hCG APL™ SUPERDEX™ 200 fractionations (described herein), and certain β-hCG peptides were tested on prostate, lung, breast, and kidney cancer cells in vitro, and on prostate tumors in nude mice. […] The preparations fractions and peptides were also assayed using a clonogenic assay in which cells were seeded in methylcellulose in the presence or absence of test substance and then colonies were counted after a certain period of time. Cells were also examined for apoptosis by confocal microscopy.
The hCG preparation, hCG fractions and β-hCG peptides were also tested for the inhibition of breast cancer cell colony formation in the clonogenic assay.

In test [3] the test system is Kaposi's Sarcoma induced in mice. As to the kind of experiment: Kaposi's Sarcoma tumors induced in mice by KS Y-1 cells. In kind it is in vivo. On the procedure:
The effects of the peptides on KS tumor cells were also evaluated in vivo in the KS mouse model. To induce KS tumors in the mice, 1×10^6/ml KS Y-1 cells in 50 μl PBS or saline were injected subcutaneously into immunodeficient mice (beige-XID-BNX mice). […] Methods for detection of apoptosis (from tissue biopsies) were used, as described in Lunardi-Iskandar et al.(1995, Nature 375:64-68). Briefly, the samples were stained in situ for the presence of cells with DNA fragmentation. Tissue slides from formalin-fixed tumors were treated with terminal deoxynucleotide transferase for extension of DNA ends (hydroxyl 3′) and incorporation of digoxigenin-11-dUTP according to the manufacturer's instructions (Oncor, Gaithersburg, Md.). Anti-digoxigenin antibody conjugated with the enzyme peroxidase allowed detection of apoptotic cells, which stain brown, whereas viable cells stain blue.
Certain fractions were tested for activity in reducing Kaposi's Sarcoma lesions in the Kaposi's Sarcoma mouse model as described herein. In this assay, starting one week after injection of the KS Y-1 cells to induce Kaposi's sarcoma formation, the mice were injected subcutaneously with 100 IU hCG. […] After one week of the week of treatment with the hCG fractions, the KS lesions were examined for cell apoptosis and regression as described herein.
Certain fractions of the APL™ hCG and early pregnancy urine were assayed for their ability to elicit apoptosis in Kaposi's Sarcoma lesions induced by injection of KS Y-1 cells in mice (n=3 mice for each treatment). The mice were administered 100 μl subcutaneously of the particular fraction each day for one week.

Test [4] has as its system prostate cancer cells. Put plainly: Trypan blue cell death assay, prostate cancer cells. In kind it is cell-based. The method, then: as §1
The effects of hCG preparations, hCG fractions and β-hCG peptides were tested in prostate cancer cells both in vitro and in vivo. Cells were incubated in either 10% fetal bovine serum (FBS) or 3% fetal bovine serum plus hCG preparations, hCG fractions and β-hCG peptides.

The subject of test [5] is lung cancer cells. As to the kind of experiment: Apoptosis by confocal microscopy, lung cancer cells. In kind it is cell-based. The conditions noted are these: 48 hours. On the procedure:
The preparations fractions and peptides were also assayed using a clonogenic assay in which cells were seeded in methylcellulose in the presence or absence of test substance and then colonies were counted after a certain period of time. Cells were also examined for apoptosis by confocal microscopy. FIGS. 23A-F show confocal micrograms of lung cancer cells treated with the hCG or hCG related preparation and then stained with FITC labelled actin monoclonal antibody to visualize the cytoskeleton and propidium iodine to visualize the cells nucleus. Condensation of the nucleus and damage to the cytoskeleton are indications of apoptosis.

Test [6] has as its system breast cancer cells. Put plainly: Trypan blue cell death assay, breast cancer cells. It is filed as cell-based. The conditions noted are these: 100 ug/ml. On the procedure: as §1
The effects of hCG preparations, hCG fractions and β-hCG peptides were also tested in breast cancer cells in vitro. Breast cancer cells were incubated with the hCG preparations, hCG fractions and β-hCG peptides in both the trypan blue viability assay and the clonogenic assay.

Bridge positions count the residues as written; N and C are the ends. Ends that are not written are not given here.

The values that follow come from patent US6699834B1, “Method for treating cancer” (University of Maryland Biotechnology Institute, priority 1997, dated 2004).

As to “4. Circ 44-57: β-hCG 44-57 with cysteine substituted at position 44, circularized via disulfide bond (SEQ ID NO:26) (CLQGVLPALPQVVC; disulfide 1-14 (inferred))”, the “promotion of hematopoiesis (in words)” value in test [1] (listed as circularized 44-57) is given as “directly promoted”; in test [1] (listed as cyclized β-hCG peptide of amino acids 44-57), “pro-hematopoietic activity”. For the same substance, the “Pro-hematopoiesis in vitro Enhancement” value in test [1] (relative increase of hematopoietic colony cell number, hCG preparations 200 IU/ml, subunits and peptides 100 μg/ml) is given as “+++ (“+++” represents greater than 70% effect)”. For the same substance, the “% inhibition (colony formation)” value in test [2] amounted to 45%. Further, the KS in vivo result in test [3] (inhibition of Kaposi's Sarcoma induced in mice) is listed as “+++ (“+++” represents greater than 70% effect)”. Further, the “effect on KS tumors in mice (in words)” value in test [3] (mouse, in vivo) is “extensive cell death”. The “percentage of cell death (trypan blue)” value in test [4] (3% FBS, 200 μg/ml) is recorded as 39%; in test [4] (3% FBS, 300 μg/ml) it was 50%; in test [4] (10% FBS, 200 μg/ml) it was 29%; in test [4] (10% FBS, 300 μg/ml), 38%. Moreover, the apoptosis entry in test [5] is recorded as “increased apoptosis”. Moreover, the “% dead cells” value in test [6] stood at 42%.
